# Test results: ChEMBL document CHEMBL1201862, “PubChem BioAssay data set” (2004)
#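 Growth conditions: 96-well plates. Treatment: test compound, 48 hours, 5 concentrations. Analysis: linear interpolation between bracketing concentrations; unreached endpoints set to highest concentration. GI50: concentration for 50% inhibition of growth.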 Activity calls are given as the source filed them. Rule as the data show it: active = GI50 up to about 1.1 µM and inactive = higher.
# How the values were obtained:
# Test in all cases: inhibition of tumour cell growth, NCI panel, 48 h
# OVCAR-4 = tested on: OVCAR-4
# CCRF-CEM = tested on: CCRF-CEM
# SF-268 = tested on: SF-268
# OVCAR-5 = tested on: OVCAR-5
# NCI/ADR-RES = tested on: NCI/ADR-RES
# K562 = tested on: K562
# SW-620 = tested on: SW-620
# SK-MEL-5 = tested on: SK-MEL-5
# MDA-MB-231 = tested on: MDA-MB-231
# NCI-H522 = tested on: NCI-H522
# NCI-H226 = tested on: NCI-H226
# OVCAR-3 = tested on: OVCAR-3
# UO-31 = tested on: UO-31
# A549 = tested on: A549
# ACHN = tested on: ACHN
# SN12C = tested on: SN12C
# SF-295 = tested on: SF-295
# TK-10 = tested on: TK-10
# UACC-62 = tested on: UACC-62
# IGROV-1 = tested on: IGROV-1
# DU-145 = tested on: DU-145
# SF-539 = tested on: SF-539
# 786-0 = tested on: 786-0
# MDA-N = tested on: MDA-N
# HL-60 = tested on: HL-60
# T47D = tested on: T47D
# EKVX = tested on: EKVX
# NCI-H23 = tested on: NCI-H23
# SR = tested on: SR
# HOP-92 = tested on: HOP-92
# RXF 393 = tested on: RXF 393
# Hs-578T = tested on: Hs-578T
# OVCAR-8 = tested on: OVCAR-8
# SNB-75 = tested on: SNB-75
# SNB-19 = tested on: SNB-19
# MCF7 = tested on: MCF7
# Malme-3M = tested on: Malme-3M
# COLO 205 = tested on: COLO 205
# PC-3 = tested on: PC-3
# M14 = tested on: M14
# RPMI-8226 = tested on: RPMI-8226
# SK-MEL-2 = tested on: SK-MEL-2
# HCT-116 = tested on: HCT-116
# HOP-62 = tested on: HOP-62
# MOLT-4 = tested on: MOLT-4
# NCI-H460 = tested on: NCI-H460
# CAKI-1 = tested on: CAKI-1
# SK-MEL-28 = tested on: SK-MEL-28
# KM12 = tested on: KM12
# LOX IMVI = tested on: LOX IMVI
# U-251 = tested on: U-251
# HT-29 = tested on: HT-29
# A498 = tested on: A498
# HCT-15 = tested on: HCT-15
# UACC-257 = tested on: UACC-257
# MDA-MB-435 = tested on: MDA-MB-435
# SK-OV-3 = tested on: SK-OV-3
# HCC 2998 = tested on: HCC 2998
structure (smiles),measurement,setting,value
CCCCOC(=O)NC(Nc1cccc(C(F)(F)F)c1)(C(F)(F)F)C(F)(F)F,GI50,OVCAR-4,99.8 µM (inactive)
same,GI50,CCRF-CEM,29.6 µM (inactive)
same,GI50,SF-268,60 µM (inactive)
same,GI50,OVCAR-5,> 100 µM (inactive)
same,GI50,NCI/ADR-RES,45.3 µM (inactive)
same,GI50,K562,30.5 µM (inactive)
same,GI50,SW-620,64.3 µM (inactive)
same,GI50,SK-MEL-5,49.9 µM (inactive)
same,GI50,MDA-MB-231,> 100 µM (inactive)
same,GI50,NCI-H522,56.4 µM (inactive)
same,GI50,NCI-H226,53.7 µM (inactive)
same,GI50,OVCAR-3,56 µM (inactive)
same,GI50,UO-31,46.5 µM (inactive)
same,GI50,A549,66.8 µM (inactive)
same,GI50,ACHN,47.4 µM (inactive)
same,GI50,SN12C,68.7 µM (inactive)
same,GI50,SF-295,26.6 µM (inactive)
same,GI50,TK-10,71.1 µM (inactive)
same,GI50,UACC-62,58.5 µM (inactive)
same,GI50,IGROV-1,49.5 µM (inactive)
same,GI50,DU-145,> 100 µM (inactive)
same,GI50,SF-539,73.6 µM (inactive)
same,GI50,786-0,84.1 µM (inactive)
same,GI50,MDA-N,41.4 µM (inactive)
same,GI50,HL-60,23.4 µM (inactive)
same,GI50,T47D,13.5 µM (inactive)
same,GI50,EKVX,51.5 µM (inactive)
same,GI50,NCI-H23,50.8 µM (inactive)
same,GI50,SR,23.1 µM (inactive)
same,GI50,HOP-92,23.9 µM (inactive)
same,GI50,RXF 393,50.7 µM (inactive)
same,GI50,Hs-578T,44.7 µM (inactive)
same,GI50,OVCAR-8,57.4 µM (inactive)
same,GI50,SNB-75,33.6 µM (inactive)
same,GI50,SNB-19,> 100 µM (inactive)
same,GI50,MCF7,59.4 µM (inactive)
same,GI50,Malme-3M,29.2 µM (inactive)
same,GI50,COLO 205,45.7 µM (inactive)
same,GI50,PC-3,68.7 µM (inactive)
same,GI50,M14,47.3 µM (inactive)
same,GI50,RPMI-8226,17.2 µM (inactive)
same,GI50,SK-MEL-2,35.5 µM (inactive)
same,GI50,HCT-116,> 100 µM (inactive)
same,GI50,HOP-62,> 100 µM (inactive)
same,GI50,MOLT-4,34.8 µM (inactive)
same,GI50,NCI-H460,32.7 µM (inactive)
same,GI50,CAKI-1,49.2 µM (inactive)
same,GI50,SK-MEL-28,> 100 µM (inactive)
same,GI50,KM12,75.9 µM (inactive)
same,GI50,LOX IMVI,32.1 µM (inactive)
same,GI50,U-251,36.1 µM (inactive)
same,GI50,HT-29,50.8 µM (inactive)
same,GI50,A498,> 100 µM (inactive)
same,GI50,HCT-15,45.2 µM
same,GI50,UACC-257,84.9 µM (inactive)
same,GI50,MDA-MB-435,33.8 µM (inactive)
COc1ccc2c(c1)N(C(C)=O)CN1C(=O)CCC21 (stereo not drawn),GI50,OVCAR-4,> 100 µM (inactive)
same,GI50,CCRF-CEM,41.7 µM (inactive)
same,GI50,SF-268,> 100 µM (inactive)
same,GI50,OVCAR-5,> 100 µM (inactive)
same,GI50,NCI/ADR-RES,> 100 µM (inactive)
same,GI50,K562,79.6 µM (inactive)
same,GI50,SW-620,> 100 µM (inactive)
same,GI50,SK-MEL-5,> 100 µM (inactive)
same,GI50,MDA-MB-231,> 100 µM (inactive)
same,GI50,NCI-H522,> 100 µM (inactive)
same,GI50,NCI-H226,> 100 µM (inactive)
same,GI50,OVCAR-3,> 100 µM (inactive)
same,GI50,UO-31,> 100 µM (inactive)
same,GI50,A549,> 100 µM (inactive)
same,GI50,ACHN,> 100 µM (inactive)
same,GI50,SN12C,> 100 µM (inactive)
same,GI50,SK-OV-3,> 100 µM (inactive)
same,GI50,SF-295,> 100 µM (inactive)
same,GI50,TK-10,> 100 µM (inactive)
same,GI50,UACC-62,> 100 µM (inactive)
same,GI50,IGROV-1,> 100 µM (inactive)
same,GI50,DU-145,> 100 µM (inactive)
same,GI50,SF-539,> 100 µM (inactive)
same,GI50,786-0,> 100 µM (inactive)
same,GI50,MDA-N,> 100 µM (inactive)
same,GI50,HL-60,48.2 µM (inactive)
same,GI50,T47D,> 100 µM (inactive)
same,GI50,EKVX,> 100 µM (inactive)
same,GI50,NCI-H23,> 100 µM (inactive)
same,GI50,HOP-92,> 100 µM (inactive)
same,GI50,RXF 393,> 100 µM (inactive)
same,GI50,Hs-578T,> 100 µM (inactive)
same,GI50,OVCAR-8,> 100 µM (inactive)
same,GI50,SNB-75,> 100 µM (inactive)
same,GI50,SNB-19,> 100 µM (inactive)
same,GI50,MCF7,> 100 µM (inactive)
same,GI50,Malme-3M,> 100 µM (inactive)
same,GI50,COLO 205,> 100 µM (inactive)
same,GI50,PC-3,> 100 µM (inactive)
same,GI50,M14,> 100 µM (inactive)
same,GI50,RPMI-8226,49.3 µM (inactive)
same,GI50,SK-MEL-2,> 100 µM (inactive)
same,GI50,HCT-116,> 100 µM (inactive)
same,GI50,HOP-62,> 100 µM (inactive)
same,GI50,MOLT-4,46 µM (inactive)
same,GI50,NCI-H460,> 100 µM (inactive)
same,GI50,CAKI-1,> 100 µM (inactive)
same,GI50,SK-MEL-28,> 100 µM (inactive)
same,GI50,KM12,> 100 µM (inactive)
same,GI50,LOX IMVI,> 100 µM (inactive)
same,GI50,U-251,> 100 µM (inactive)
same,GI50,HT-29,> 100 µM (inactive)
same,GI50,A498,> 100 µM (inactive)
same,GI50,HCT-15,> 100 µM
same,GI50,UACC-257,> 100 µM (inactive)
same,GI50,HCC 2998,> 100 µM (inactive)
same,GI50,MDA-MB-435,> 100 µM (inactive)
